Results on 17 molecules are retold here after patent US7169787B2, “7-azaindoles, use thereof as phosphodiesterase 4 inhibitors and method for producing the same” (Elbion AG, priority 2000, dated 2007).

In general, melting point refers to the temperature, or range, at which the solid turns liquid. The IC50 is the concentration that gives 50% inhibition. Lower therefore signals greater potency. One may read the inhibition as the percentage by which the read-out fell short of the control.

In one series the target is PDE 4. Nature of the series: Inhibition of phosphodiesterase 4 (enzyme preparation from human PMNL, [3H]-cAMP). Conditions: PDE 4 from human PMNL cytosol, 0.5 μM [3H]-cAMP. It is filed as biochemical. The method, then:
The PDE 4 activity is determined in enzyme preparations from human polymorphonuclear […] (PMNL) and the PDE 2, 3 and 5 activity is determined with PDE from human thrombocytes. Human blood was anti-coagulated with citrate. By centrifuging at 700×g for 20 minutes at room temperature, the thrombocyte-rich plasma in the supernatant is separated from the erythrocytes and leukocytes. The thrombocytes are lysed by ultrasound and used in the PDE 3 and PDE 5 assays. For the determination of the PDE 2 activity, the cytosolic thrombocyte fraction is purified on an anionic exchange column by means of NaCl gradients and the PDE 2 peak is obtained for the assay. The PMNLs for the PDE 4 determination are isolated by a subsequent dextran sedimentation, followed by a gradient centrifugation with Ficoll-Paque. After the cells have been washed twice, the erythrocytes, still contained, are lysed within 6 minutes at 4° C. by the addition of 10 mL of hypotonic buffer (155 mM of NH4Cl, 10 mM of NaHCO3, 0.1 mM of EDTA, pH=7.4). The PMNLs, which are still intact, are washed twice with PBS and lysed with ultrasound. The supernatant of a one-hour centrifugation at 4° C. at 48,000×g contains the cytosolic fraction of the PDE 4 and is used for the PDE 4 measurements.
The phosphodiesterase activity is determined using the method described by Thompson et al. with some modifications (Thompson, W. J. and M. M. Appleman, Assay of cyclic nucleotide phosphodiesterase and resolution of multiple molecular forms of the enzyme, Adv. Cycl. Nucl. Res. 1979, 10, 69–92).
The reaction mixtures contain 50 mM of tris hydrochloride (pH 7.4), 5 mM of magnesium chloride, the inhibitors in various concentrations, the corresponding enzyme preparation as well as the further components necessary for determining the individual isoenzymes (see below). The reaction is started by the addition of the substrate, 0.5 μM of [^3H]-cAMP or [^3H]-cGMP (approximately 6000 CPM per test). The final volume is […]. Test substances are mixed as stock solutions in DMSO. The DMSO concentration in the reaction mixture is 1% v/v. The PDE activity is not affected by this concentration of DMSO. After the reaction is started by the addition of substrate, samples are incubated for 30 minutes at 37° C. The reaction is stopped by heating the test tubes for 2 minutes at 110° C. The samples remain for a further 10 minutes in ice. The addition of 30 μL of 5′-nucleotidase (1 mg/mL, from a poisonous snake suspension from Crotalus adamanteus) is followed by a 10-minutes incubation at 37° C. The samples are stopped on ice, in each case 400 μL of a mixture of Dowex, water and ethanol (1+1+1) is added, mixed well and incubated once again for 15 minutes on ice. The reaction vessels are centrifuged for 20 minutes at 3000×g. Aliquots of the supernatant (200 μL) are transferred directly to scintillation vessels. After the addition of 3 mL of scintillator, the samples are measured in the beta counter.
[^3H]-cAMP is used as substrate for the determination of the PDE 4, 3 and 2 activity and [^3H]-cGMP is used as substrate for the determination of the PDE 5 activity. The enzyme activities, which are nonspecific in each case, are determined in the presence of 100 μM of Rolipram for the determination of PDE 4 and in the presence of 100 μM of IBMX for the determination of the PDE 3 and 5 and subtracted from the test values. The incubation formulations of the PDE 3 assays contained 10 μM of Rolipram, in order to inhibit possible contaminations by PDE 4. The PDE 2 is tested with an SPA assay of the Amersham Company. The assay is carried out in the presence of the activator of the PDE 2 (5 μM of cGMP).

Series [1] relates to release of TNFα from cells of nasal polyps. Nature of the series: Inhibition of the release of TNFα from cells of nasal polyps (anti-IgE stimulated, ELISA). It is filed as cell-based. Conditions: Homo sapiens; concentration 1.0 μmole/L; anti-IgE stimulated nasal polyp cells. The method, then:
The experimental arrangement corresponds essentially to the method described by Campbell, A. M. and J. Bousquet (Anti-allergic activity of H1-blockers, Int. Arch. Allergy Immunol., 1993, 101, 308–310). Nasal polyps form the starting material (material from patients, who had been subjected to a surgical treatment).
The tissue is washed with RPMI 1640 and subsequently digested with protease (2.0 mg/mL), collagenase (1.5 mg/mL), hyaluronidase (0.75 mg/mL), and DNAse (0.05 mg/mL) for two hours at 37° C. (1 g of tissue and 4 mL of RPMI 1640 with enzymes). The cells obtained, a mixture of epithelial cells, monocytes, macrophages, lymphocytes, fibroblasts and granulocytes, are filtered and washed by being centrifuged repeatedly in culture solution and sensitized passively by the addition of human IgE and the cell suspension is brought to a concentration of 2 million cells/mL in RPMI 1640 (supplemented by antibiotics, 10% fetal calf serum, 2 mM of glutamine and 25 mM of Hepes). This suspension is distributed on six-well cell culture plates (1 ml/well). The cells are pre-incubated for 30 minutes with the test substances in different final concentrations and subsequently stimulated to release TNFα by the addition of anti-IgE (7.2 μg/mL). The maximum release into the culture medium takes place after about 18 hours. During this period, the cells are incubated at 37° C. and 5% carbon dioxide. The culture medium (supernatant) is recovered by centrifuging (five minutes at 4000 rpm) and kept at −70° C. until the cytokin is determined. The TNFα in the supernatant is determined with so-called sandwich ELISAs (basic material Pharmingen), with which cytokin concentrations ranging from 30 to 1000 pg/mL can be determined.
Cells, not stimulated with anti IgE, hardly produce any TNFα; on the other hand, stimulated cells secrete large amounts of TNFα, which can be reduced, for example, by PDE 4 inhibitors as a function of the dose. From the percentage inhibition (TNFα release by the cells, stimulated with anti IgE=100%) of the substances tested at different concentrations, the IC50 (concentration at 50% inhibition) is calculated.
A general note: ELISA stands for enzyme-linked immunosorbent assay.

The subject of series [2] is actively sensitized Brown Norway Rats. Nature of the series: Inhibition of the late phase eosinophilia 48 hours after inhalative ovalbumin challenge. It is filed as in vivo, rat. Particulars: 2 h before allergen challenge, BAL 48 h after challenge. Here is the method:
The inhibition of pulmonary eosinophilia infiltration by the inventive substances is tested on male Brown Norway Rats (200–250 g), which had been actively sensitized against ovalbumin (OVA). The rats were sensitized by subcutaneous injections of a suspension of 10 μg OVA together with 20 mg of aluminum hydroxide as adjuvant in 0.5 mL of physiological salt solution per animal on days 1, 14 and 21. In addition, the animals at the same time received Bordetella pertussis vaccine dilution injected 0.25 mL i.p. per animal. On the 28th day of the experiment, the animals are placed individually in open 1 L Plexiglas boxes, which are connected to a head-nose exposure device. The animals are exposed to an aerosol of 1.0% ovalbumin suspension (allergen challenge). The ovalbumin aerosol is produced by a nebulizer (Bird Micronebulizer, Palm Springs Calif., USA), which is operated with compressed air (0.2 MPa). The exposure time is one hour, normal controls being nebulized also for one hour with an aerosol of 0.9% salt solution.
Forty-eight hours after the allergen challenge, there is a massive migration of eosinophilic granulocytes into the lungs of the animals. At this time, the animals are anesthetized with an excess of ethyl urethane (1.5 g/kg of body weight i.p.) and a bronchoalveolar lavage (BAL) with 3×4 mL of Hank's balance solution is carried out. The total cell count and the number of eosinophilic granulocytes of the pooled BAL liquid are subsequently determined with an automatic cell differentiation instrument (Bayer Diagnostics Technicon HIE). For each animal, the eosinophiles (EOS) in the BAL are calculated in millions/animal: EOS/μl×BAL recovery (mL)=EOS/animal.
For each test, 2 control groups were run (nebulization with physiological salt solution and nebulization with OVA solution).
The percentage inhibition of the eosinophilia of the experimental group, treated with substance, was calculated according to the following formula: {((OVAC−SC)−(OVAD−SC))/(OVAC−SC)}×100%=% inhibition (SC=vehicle-treated control group challenged with 0.9% salt solution; OVAC=vehicle-treated control group challenged with 1% ovalbumin suspension; OVAD=substance-treated experimental group challenged with 1% ovalbumin suspension)
The test substances are applied i.p. or orally as a suspension in 10% polyethylene glycol 300 and 0.5% 5-hydroxyethylcellulose for two hours before the allergen challenge. The control groups are treated with the vehicle in accordance with the application form of the test substance.

Each structure is given as a SMILES string. Where a name gives a salt, the structure may show the parent alone.

For the molecule `O=C(Nc1ccncc1)C(=O)c1cn(Cc2ccc(F)cc2)c2ncccc12` (as salt: HCl) [Example 13], the melting point was 275 to 278 °C (dec.).

`COc1cccc(Cn2cc(C(=O)C(=O)Nc3c(Cl)cncc3Cl)c3cccnc32)c1` [Example 12, N-(3,5-Dichloropyridine-4-yl)-[1-(3-methoxybenzyl)-7-azaindole-3-yl]-glyoxylic Acid Amide] yielded a melting point of 165 to 167 °C. For the same molecule, the half-inhibitory concentration (IC50) against PDE 4 came out at 0.005 µM.

`O=C(NCc1ccncc1)c1cn(CC2CC2)c2ncccc12` [Example 1, N-(4-Pyridylmethyl)-1-cyclopropylmethyl-7-azaindole-3-carboxylic Acid Amide] yielded an IC50 at PDE 4 of 0.71 µM.

`O=C(Nc1c(Cl)cncc1Cl)C(=O)c1cn(Cc2ccc(O)cc2)c2ncccc12` [Example 23] gave a melting point of 140 to 142 °C. The molecule further showed an IC50 against PDE 4 of 0.001 µM.

On to `Cc1noc(C)c1Cn1cc(C(=O)C(=O)Nc2c(Cl)cncc2Cl)c2cccnc21` [Example 32], for which the melting point was in the range of 196 to 198 °C. Besides, half-maximal inhibition against PDE 4 (IC50) required 0.113 µM.

The molecule `CCCCCCn1cc(C(=O)C(=O)Nc2c(Cl)cncc2Cl)c2cccnc21` [Example 26] returned a melting point of 165 to 167 °C. This molecule also had a half-maximal inhibitory concentration (IC50) on PDE 4 of 0.021 µM.

For the molecule `Cc1[nH]c(=O)[nH]c(=O)c1NC(=O)C(=O)c1cn(Cc2ccc(F)cc2)c2ncccc12` [Example 37], the melting point is 297 to 300 °C (dec.). Moreover, on PDE 4, half-maximal inhibition (IC50) required 0.987 µM.

Molecule `O=C(Nc1c(Cl)cccc1Cl)C(=O)c1cn(Cc2ccc(Cl)cc2)c2ncccc12` [Example 18] yielded a melting point of 166 to 168 °C. On PDE 4, the concentration for half-maximal inhibition (IC50) was found to be 0.031 µM.

For `O=C(Nc1c(Cl)cncc1Cl)C(=O)c1cn(CC2CC2)c2ncccc12` [Example 25], the melting point lay within 215 to 218 °C. At PDE 4, the IC50 stood at 0.004 µM.

On to `O=C(Nc1c(Cl)cncc1Cl)C(=O)c1cn(Cc2ccc(Cl)cc2)c2ncccc12` [Example 16], for which the melting point fell in the range of 205 to 207 °C. In series [1], this molecule showed an inhibition at 1 µM of 90%. For the same molecule, the “Inhibition of Eosinophilia” value in series [2] (10 mg/kg i.p.) worked out at 100%. Moreover, the “Inhibition of Eosinophilia” value in series [2] (10 mg/kg p.o.) is reported as 70%. In addition, the half-inhibitory concentration (IC50) against PDE 4 came to 0.002 µM.

In turn, `O=C(Nc1c(Cl)cncc1Cl)C(=O)c1cn(Cc2cccc(O)c2)c2ncccc12` [Example 24] registered a melting point of 241 to 244 °C. In addition, the half-maximal inhibitory concentration (IC50) against PDE 4 worked out at 0.003 µM.

`C=C(C)Cn1cc(C(=O)C(=O)Nc2c(Cl)cncc2Cl)c2cccnc21` [Example 28] registered a melting point of 114 to 116 °C. For the same molecule, the IC50 against PDE 4 was determined as 0.003 µM.

Take `O=C(Nc1ccncc1)C(=O)c1cn(Cc2ccc(Cl)cc2)c2ncccc12` [Example 15]: at PDE 4, it took 0.031 µM to reach half-maximal inhibition (IC50).

As for `O=C(Nc1ccncc1)C(=O)c1cn(Cc2ccc(Cl)cc2)c2ncccc12` (as salt: HCl) [Example 15], the melting point was 280 to 283 °C (dec.).

In turn, `COc1ccc(Cn2cc(C(=O)C(=O)Nc3c(Cl)cncc3Cl)c3cccnc32)cc1` [Example 17] returned a melting point of 165 to 167 °C. The molecule also displayed an inhibition at 1 µM in series [1] of 91%. Also, the “Inhibition of Eosinophilia” value in series [2] (10 mg/kg i.p.) was found to be 75%. Besides, the “Inhibition of Eosinophilia” value in series [2] (10 mg/kg p.o.) came out at 32%. Also, it took 0.008 µM to reach half-maximal inhibition against PDE 4 (IC50).

As for `CC(C)Cn1cc(C(=O)Nc2c(Cl)cncc2Cl)c2cccnc21` [Example 2], the half-maximal inhibitory concentration (IC50) at PDE 4 was 1.4 µM.

As for `O=C(Nc1ccncc1)C(=O)c1cn(Cc2ccc(F)cc2)c2ncccc12` [Example 13], the IC50 against PDE 4 is 0.058 µM.
